The source of these data is patent US6964975B2, “Isoxazole and thiazole compounds and use thereof as medicine” (Kirin Beer Kabushiki Kaisha, priority 2000, dated 2005).

SMILES strings stand for the structures.

T1 sequence (Q92633 whole entry): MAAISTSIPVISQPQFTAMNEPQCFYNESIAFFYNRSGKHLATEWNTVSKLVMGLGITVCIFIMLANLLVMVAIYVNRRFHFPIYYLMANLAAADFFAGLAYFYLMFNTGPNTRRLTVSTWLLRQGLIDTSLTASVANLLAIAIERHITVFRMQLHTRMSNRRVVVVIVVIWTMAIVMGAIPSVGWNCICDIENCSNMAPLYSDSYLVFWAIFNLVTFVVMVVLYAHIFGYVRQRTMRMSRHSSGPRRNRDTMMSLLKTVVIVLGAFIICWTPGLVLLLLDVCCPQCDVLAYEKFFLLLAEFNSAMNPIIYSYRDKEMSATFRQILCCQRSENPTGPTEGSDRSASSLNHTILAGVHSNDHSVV

The experiment concerns the target T1, human EDG-2 (Homo sapiens, UniProt Q92633).
T1 construct: cDNA of the cloned human EDG-2 was introduced into pEFneo, which is an animal expression vector; expressed in transfected cells; host or cells: HepG2
Nature of the experiment: Inhibitory activity on LPA-induced elevation of intracellular Ca2+ level. Format: cell-based. The conditions noted are these: 50% inhibition of elevation of intracellular Ca2+ level by LPA, human EDG-2/HepG2 cells, fura-2. The text has this: The human EDG-2 expression plasmid was introduced into HepG2 cells by electroporation. After the introduction, culturing was continued while exchanging selective media every 3 to 4 days, thereby obtaining an expressed colony. Regarding these cells, Ca-influx and cell-proliferation by LPA, level of [^3H] LPA binding and the like were inspected to select a cell line which highly expresses human EDG-2 (human EDG-2/HepG2).
Human EDG-2/HepG2 cells were washed and then suspended in 0.1% BSA (bovine serum albumin)-containing HEPES buffer. A fluorescent indicator, fura-2/AM (Wako Pure Chemical Industries, Ltd.), was added, and the mixture was shaken at room temperature for 45 minutes so that the indicator is included in the cell. Cells were washed again and then suspended in 0.1% BSA-containing HEPES buffer, and intracellular Ca^2+ level was assayed using FDSS2000 (Hamamatsu Photonics). […] Each test compound was added to the cell suspension followed by the addition of LPA, thereby examining the inhibitory activity of the test compound on the function of LPA for elevating the intracellular Ca level. […] The lower the IC50 value, the higher the antagonistic activity on the LPA receptor.
As to `Cc1onc(-c2ccccc2)c1NC(=O)OC1CCc2ccccc2C1` (centres unmarked) [Compound 98, 1,2,3,4-Tetrahydro-2-naphthalenyl N-(5-methyl-3-phenyl-4-isoxazolyl)carbamate], the IC50 was in the range of 30 to 100 µM. On to `Cc1onc(-c2ccc(CO)cc2)c1NC(=O)OC(C)c1ccccc1Cl` (centres unmarked) [Compound 8, 1-(2-Chlorophenyl)ethyl N-[3-[4-(hydroxymethyl)phenyl]-5-methyl-4-isoxazolyl]carbamate], for which the IC50 is 3 to 10 µM. For the compound `Cc1ccc(-c2onc(C)c2NC(=O)OC(C)c2ccccc2)cc1` (centres unmarked) [Compound 37, 1-Phenylethyl N-[3-methyl-5-(4-methylphenyl)-4-isoxazolyl]carbamate], half-maximal inhibition (IC50) required 30 µM. Under `Cc1cccc(-c2onc(C)c2NC(=O)OC(C)c2ccccc2Cl)c1` (centres unmarked) [Compound 28, 1-(2-Chlorophenyl)ethyl N-[3-methyl-5-(3-methylphenyl)-4-isoxazolyl]carbamate] stands 10 to 30 µM; under `Cc1noc(-c2ccc(COCc3ccoc3)cc2)c1NC(=O)OC(C)c1ccccc1Cl` (centres unmarked) [Compound 85, 1-(2-Chlorophenyl)ethyl N-(5-[4-[(3-furylmethoxy)methyl]phenyl]-3-methyl-4-isoxazolyl)carbamate], 3 to 10 µM; under `Cc1noc(-c2ccc3c(c2)OCO3)c1NC(=O)OC(C)c1ccccc1Cl` (centres unmarked) [Compound 52, 1-(2-Chlorophenyl)ethyl N-[5-(1,3-benzodioxol-5-yl)-3-methyl-4-isoxazolyl]carbamate], 30 µM.

Regarding `Cc1noc(-c2ccc(OC(F)(F)F)cc2)c1NC(=O)OC(C)c1ccccc1F` (centres unmarked) [Compound 45, 1-(2-Fluorophenyl)ethyl N-[3-methyl-5-[4-(trifluoromethoxy)phenyl]-4-isoxazolyl]carbamate], the IC50 amounted to 3 µM.

Regarding `Cc1noc(-c2ccc(F)cc2)c1NC(=O)OC(C)c1ccccc1Cl` (centres unmarked) [Compound 41, 1-(2-Chlorophenyl)ethyl N-[5-(4-fluorophenyl)-3-methyl-4-isoxazolyl]carbamate], the half-inhibitory concentration (IC50) was 3 to 10 µM. Under `Cc1noc(-c2cccc(F)c2)c1NC(=O)OC(C)c1ccccc1` (centres unmarked) [Compound 29, 1-Phenylethyl N-[5-(3-fluorophenyl)-3-methyl-4-isoxazolyl]carbamate] stands 10 µM; under `Cc1noc(-c2ccc(CNCCc3ccccn3)cc2)c1NC(=O)OC(C)c1ccccc1Cl` (centres unmarked) [Compound 90, 1-(2-Chlorophenyl)ethyl N-(3-methyl-5-[4-[([2-(2-pyridyl)ethyl]amino)methyl]phenyl]-4-isoxazolyl)carbamate], 10 µM.

Compound `Cc1onc(-c2ccccc2)c1NC(=O)OC(C)c1ccccc1` (centres unmarked) [Compound 12, 1-Phenylethyl N-(5-methyl-3-phenyl-4-isoxazolyl)carbamate] registered an IC50 of 30 to 100 µM. Take `Cc1onc(-c2ccc([N+](=O)[O-])cc2)c1NC(=O)OC(C)c1ccccc1Cl` (centres unmarked) [Compound 6, 1-(2-Chlorophenyl)ethyl N-[5-methyl-3-(4-nitrophenyl)-4-isoxazolyl]carbamate]: the IC50 was determined as 10 µM. This lies in the double-digit micromolar range. Under `Cc1noc(-c2ccc(COc3ccccc3)cc2)c1NC(=O)OC(C)c1ccccc1Cl` (centres unmarked) [Compound 79, 1-(2-Chlorophenyl)ethyl N-[3-methyl-5-[4-(phenoxymethyl)phenyl]-4-isoxazolyl]carbamate] stands 3 µM; under `Cc1noc(-c2ccc(C#N)cc2)c1NC(=O)OC(c1ccccc1)C(F)(F)F` (centres unmarked) [Compound 86, 2,2,2-Trifluoro-1-phenylethyl N-[5-(4-cyanophenyl)-3-methyl-4-isoxazolyl]carbamate], 1 to 3 µM. Turning to `Cc1ccc(-c2onc(C)c2NC(=O)OC(C)c2ccccc2Cl)s1` (centres unmarked) [Compound 69, 1-(2-Chlorophenyl)ethyl N-[3-methyl-5-(5-methyl-2-thienyl)-4-isoxazolyl]carbamate], the IC50 was 3 to 10 µM. Regarding `Cc1noc(-c2ccsc2)c1NC(=O)OC(C)c1ccccc1Cl` (centres unmarked) [Compound 75, 1-(2-Chlorophenyl)ethyl N-[3-methyl-5-(3-thienyl)-4-isoxazolyl]carbamate], the IC50 was in the range of 3 to 10 µM. The figure for `COCc1noc(-c2ccccc2)c1NC(=O)OC(C)c1ccccc1Cl` (centres unmarked) [Compound 78, 1-(2-Chlorophenyl)ethyl N-[3-(methoxymethyl)-5-phenyl-4-isoxazolyl]carbamate] is 30 µM; for `Cc1cccc(-c2onc(C)c2NC(=O)OC(C)c2ccccc2)c1` (centres unmarked) [Compound 27, 1-Phenylethyl N-[3-methyl-5-(3-methylphenyl)-4-isoxazolyl]carbamate] it is 30 µM; for `Cc1noc(-c2ccc(Br)o2)c1NC(=O)OC(C)c1ccccc1Cl` (centres unmarked) [Compound 73, 1-(2-Chlorophenyl)ethyl N-[5-(5-bromo-2-furyl)-3-methyl-4-isoxazolyl]carbamate] it is 1 to 3 µM. The figure for `Cc1noc(-c2ccc(COCc3ccco3)cc2)c1NC(=O)OC(C)c1ccccc1Cl` (centres unmarked) [Compound 84, 1-(2-Chlorophenyl)ethyl N-(5-[4-[(2-furylmethoxy)methyl]phenyl]-3-methyl-4-isoxazolyl)carbamate] is 3 to 10 µM; for `C=CCCCOC(=O)Nc1c(-c2ccccc2)noc1C` [Compound 102, 4-Pentenyl N-(5-methyl-3-phenyl-4-isoxazolyl)carbamate] it is 30 to 100 µM; for `Cc1ccccc1C(C)OC(=O)Nc1c(-c2ccccc2)noc1C` (centres unmarked) [Compound 14, 1-(2-Methylphenyl)ethyl N-(5-methyl-3-phenyl-4-isoxazolyl)carbamate] it is 30 to 100 µM. For `Cc1onc(-c2cccc(Br)c2)c1NC(=O)OC(C)c1ccccc1Cl` (centres unmarked) [Compound 13, 1-(2-Chlorophenyl)ethyl N-[3-(3-bromophenyl)-5-methyl-4-isoxazolyl]carbamate], the IC50 came to 30 µM. This lies in the double-digit micromolar range. Under `Cc1noc(-c2ccc(COCc3c(F)cccc3F)cc2)c1NC(=O)OC(C)c1ccccc1Cl` (centres unmarked) [Compound 83, 1-(2-Chlorophenyl)ethyl N-[5-(4-[[(2,6-difluorobenzyl)oxy]methyl]phenyl)-3-methyl-4-isoxazolyl]carbamate] stands 10 µM; under `Cc1noc(-c2cccc(F)c2)c1NC(=O)O[C@H](C)c1ccccc1Br` [Compound 33, (1R)-1-(2-Bromophenyl)ethyl N-[5-(3-fluorophenyl)-3-methyl-4-isoxazolyl]carbamate], 3 to 10 µM; under `Cc1noc(-c2cccc(CSCCO)c2)c1NC(=O)OC(C)c1ccccc1Cl` (centres unmarked) [Compound 131, 1-(2-Chlorophenyl)ethyl N-[5-(3-{[(2-hydroxyethyl)sulfanyl]methyl}phenyl)-3-methyl-4-isoxazolyl]carbamate], 3 µM. As to `CCc1noc(-c2ccccc2)c1NC(=O)OC(C)c1ccccc1Cl` (centres unmarked) [Compound 76, 1-(2-Chlorophenyl)ethyl N-(3-ethyl-5-phenyl-4-isoxazolyl)carbamate], the IC50 was 1 to 3 µM.

Regarding `Cc1noc(-c2ccc([N+](=O)[O-])cc2)c1NC(=O)OC(C)c1ccccc1Cl` (centres unmarked) [Compound 55, 1-(2-Chlorophenyl)ethyl N-[3-methyl-5-(4-nitrophenyl)-4-isoxazolyl]carbamate], the IC50 was 3 to 10 µM. The figure for `Cc1onc(-c2cccc(C(F)(F)F)c2)c1NC(=O)OC(C)c1ccccc1Cl` (centres unmarked) [Compound 15, 1-(2-Chlorophenyl)ethyl N-[5-methyl-3-[3-(trifluoromethyl)phenyl]-4-isoxazolyl]carbamate] is 30 µM. The figure for `Cc1onc(-c2ccccc2)c1NC(=O)OC(c1ccccc1)C(F)(F)F` (centres unmarked) [Compound 80, 2,2,2-Trifluoro-1-phenylethyl N-(5-methyl-3-phenyl-4-isoxazolyl)carbamate] is 1 to 3 µM; for `CCCCC(C)OC(=O)Nc1c(-c2ccccc2)noc1C` (centres unmarked) [Compound 101, 1-Methylpentyl N-(5-methyl-3-phenyl-4-isoxazolyl)carbamate] it is 30 to 100 µM. `CCc1noc(-c2ccc(CCl)cc2)c1NC(=O)OC(C)c1ccccc1F` (centres unmarked) [Compound 160, 1-(2-Fluorophenyl)ethyl N-{5-[4-(chloromethyl)phenyl]-3-ethyl-4-isoxazolyl}carbamate] gave an IC50 of 3 to 10 µM. Under `Cc1noc(-c2ccc(F)cc2F)c1NC(=O)OC(C)c1ccccc1Cl` (centres unmarked) [Compound 60, 1-(2-Chlorophenyl)ethyl N-[5-(2,4-difluorophenyl)-3-methyl-4-isoxazolyl]carbamate] stands 1 to 3 µM. For the compound `Cc1onc(-c2ccccc2)c1NC(=O)OCc1ccccc1` [Compound 2, Benzyl N-(5-methyl-3-phenyl-4-isoxazolyl)carbamate], the IC50 is 30 to 100 µM. The figure for `Cc1onc(-c2ccccc2)c1NC(=O)OCCc1ccccc1` [Compound 96, Phenethyl N-(5-methyl-3-phenyl-4-isoxazolyl)carbamate] is 30 to 100 µM. `Cc1onc(-c2ccccc2)c1NC(=O)O[C@H](C)c1ccccc1` [Compound 9, (1R)-1-Phenylethyl N-(5-methyl-3-phenyl-4-isoxazolyl)carbamate] showed an IC50 of 10 to 30 µM.

`Cc1noc(-c2ccccc2)c1NC(=O)OC(C)c1ccccc1Cl` (centres unmarked) [Compound 3, 1-(2-Chlorophenyl)ethyl N-(3-methyl-5-phenyl-4-isoxazolyl)carbamate]: the IC50 was 3 µM.

Consider `Cc1noc(-c2ccccc2F)c1NC(=O)OC(C)c1ccccc1Cl` (centres unmarked) [Compound 43, 1-(2-Chlorophenyl)ethyl N-[5-(2-fluorophenyl)-3-methyl-4-isoxazolyl]carbamate], for which the IC50 is 3 to 10 µM.
